Data: US12486538B2, “Methods of diagnosing alzheimer's disease and risk of progression to alzheimer's disease” (Loma Linda University Health, priority 2016, dated 2025)
“Also recorded” adds a separate entry of the source.

Assays:
[1] = tested on: MAST4 protein expression; assay: Immunoblot of MAST4 protein, SH-SY5Y cells; type: cell-based, human; details: 5 μM 27OHC
Method: (§1) Immunoblotting was conducted as previously described with the following antibodies: APP (Sigma #A8717; Millipore #22C11); MAST4 (GeneTex #GTX87899); FOXO1 (Cell Signaling Technology #2880); RTKN2 (Proteintech #17458-1-AP); caspase-3 (Cell Signaling Technology #9662); caspase-7 (Cell Signaling Technology #9492); actin (Sigma #A5316) (7).

[2] = tested on: RTKN2 mRNA; assay: qPCR of RTKN2 mRNA, rat cortical neurons; type: cell-based
Method: (§2) RNA was purified using TRIzol LS reagent according to the manufacturer's instructions (Thermofisher cat #10296010).
(§3) mRNA was purified with TRIzol reagent, converted to cDNA with reverse transcriptase according to the manufacturer's instructions and quantified with iTaq Universal SYBR Green Supermix (Bio-Rad cat #1725120). Results were determined using the delta-delta cycle threshold (ct) method.

[3] = tested on: activated caspase-3, activated caspase-7 and Bax/Bcl2 ratio; assay: Immunoblot of active caspases 3 and 7, Bax, Bcl-2 and RTKN2 in treated cells; type: cell-based
Method: as §1

[4] = tested on: B103-APP695 cells; assay: LIVE/DEAD assay in B103-APP695 cells; type: cell-based, rat; details: 50 μM 27OHC, APP-expressing cells
Method: Live dead cell assays were conducted with live dead cell assay kit according to the manufacturer's instructions (Thermofisher #L3224).

[5] = tested on: binding of AICD to the MAST4 promoter; assay: ChIP, AICD binding to MAST4 promoter, rat cortical neurons; type: cell-based; details: 5 μM 27OHC
Method: (§4) Rat cortical neurons were dissociated using a papain dissociation kit following manufacturer's instructions (Worthington, NJ; Cat #LK003150). Neurons were cultured in neurobasal medium with B27 supplement with 2 mM glutamine, 50 U/ml penicillin and 50 μg/mL. SH-SY5Y and B103 cells were cultured in DMEM (Sigma Cat #D6429-500M) supplemented with 5% fetal bovine serum. SH-SY5Y cells were differentiated with the addition of 10 μM retinoic acid for 7 days prior to experimentation.
Chromatin Immunoprecipitation (ChIP) assays were conducted according to standard protocols published by ABcam. Following treatments, cells were incubated with formaldehyde at a final concentration of 0.75% for 10 minutes followed by glycine at a final concentration of 125 mM for an additional 5 minutes. Cells were then washed two times with Phosphate Buffered Saline (PBS) and lysed in FA lysis buffer (50 mM HEPES-KOH PH 7.5, 140 mM NaCl, 1 mM EDTA, 1% Triton X-100, 0.1% Sodium Deoxycholate, 0.1% SDS, protease inhibitors). Resulting cell lysates were sonicated to fragment DNA, spun down, and incubated with antibody conjugated protein A sepharose beads (ThermoFisher cat #101041) overnight with gentile agitation. Following incubation, beads were pelleted, washed three times with FA lysis buffer, and DNA was eluted with elution buffer (1% SDS, 100 mM NaHCO3). […]

[6] = tested on: RTKN2 protein expression; assay: Immunoblot of RTKN2 protein, rat cortical neurons; type: cell-based; details: cytoprotective doses, 2.5 and 5 μM 27OHC
Method: as §1

[7] = tested on: neuron-differentiated SH-SY5Y cells; assay: LDH release assay in neuron-differentiated SH-SY5Y cells; type: cell-based, human; details: for LDH release, dose-response pattern: increasing concentrations
Method: as §4, with “experimentation. LDH assays were conducted with a LDH assay kit following manufacturer's instructions (cat #88954).” for “experimentation.”

[8] = tested on: binding of AICD to the MAST4 promoter; assay: ChIP, AICD binding to MAST4 promoter, transfected B103 cells; type: cell-based, rat
Method: (§5) Chromatin Immunoprecipitation (ChIP) assays were conducted according to standard protocols published by ABcam. Following treatments, cells were incubated with formaldehyde at a final concentration of 0.75% for 10 minutes followed by glycine at a final concentration of 125 mM for an additional 5 minutes. Cells were then washed two times with Phosphate Buffered Saline (PBS) and lysed in FA lysis buffer (50 mM HEPES-KOH PH 7.5, 140 mM NaCl, 1 mM EDTA, 1% Triton X-100, 0.1% Sodium Deoxycholate, 0.1% SDS, protease inhibitors). Resulting cell lysates were sonicated to fragment DNA, spun down, and incubated with antibody conjugated protein A sepharose beads (ThermoFisher cat #101041) overnight with gentile agitation. Following incubation, beads were pelleted, washed three times with FA lysis buffer, and DNA was eluted with elution buffer (1% SDS, 100 mM NaHCO3). Resulting DNA fragments were further purified with a DNA purification kit (Clontech cat #740609.250) prior to qPCR analysis. Antibodies used were anti-APP C-terminus (Sigma #A8717); anti-FOXO1 (Abcam #39670).

[9] = tested on: RTKN2 mRNA; assay: qPCR of RTKN2 mRNA, transfected B103 cells; type: cell-based, rat; details: B103 with APP695, 5 μM 27OHC
Method: as §2, §3

[10] = tested on: binding of FOXO1 to the RTKN2 promoter; assay: ChIP, FOXO1 binding to RTKN2 promoter, SH-SY5Y cells; type: cell-based, human; details: 5 μM 27OHC
Method: as §5

[11] = tested on: RTKN2 mRNA; assay: qPCR of RTKN2 mRNA, SH-SY5Y cells; type: cell-based, human; details: control siRNA, 5 μM 27OHC
Method: as §2, §3

[12] = tested on: FOXO1 phosphorylation by MAST4 kinase; assay: MAST4 in vitro kinase assay on immunoprecipitates from treated cells; type: cell-based, human
Method: Immunoprecipitations were conducted as outlined by ABcam under non-denaturing conditions.
Kinase activity was measured at 37° C. for 30 minutes in 50 μl kinase buffer (50 mM Tris, pH 7.4, 10 mM MgCl2) supplemented with 50 μM ATP and human recombinant FOXO1 (1 μg; Origene #TP300477). Kinase reactions were run on 4-20% Tris-Glycine polyacrylamide gels (Thermofisher) and byproducts identified with anti phospho-Serine/Threonine antibody (Abcam ab17464).

[13] = tested on: binding of AICD to the MAST4 promoter; assay: ChIP, AICD binding to MAST4 promoter, SH-SY5Y cells; type: cell-based, human; details: 5 μM 27OHC
Method: as §5

[14] = tested on: binding of FOXO1 to the RTKN2 promoter; assay: ChIP, FOXO1 binding to RTKN2 promoter, transfected B103 cells; type: cell-based, rat; details: B103 expressing APP695, 5 μM 27OHC
Method: as §5

[15] = tested on: MAST4 mRNA; assay: qPCR of MAST4 mRNA, rat cortical neurons; type: cell-based; details: 5 μM 27OHC
Method: as §2, §3

[16] = tested on: MAST4 mRNA; assay: qPCR of MAST4 mRNA, SH-SY5Y cells; type: cell-based, human; details: 5 μM 27OHC
Method: as §2, §3

[17] = tested on: B103-EV cells; assay: LDH release assay in B103 cells with empty vector (lack APP); type: cell-based, rat; details: absence of APP, 18 hours
Method: as §4, with “experimentation. Transfections were conducted using Lippofectamine LTX (Thermofisher; cat #A12621) according to the manufacturer's instructions. LDH assays were conducted with a LDH assay kit following manufacturer's instructions (cat #88954).” for “experimentation.”

[18] = tested on: binding of FOXO1 to the RTKN2 promoter; assay: ChIP, FOXO1 binding to RTKN2 promoter, rat cortical neurons; type: cell-based
Method: as §4, §5

[19] = tested on: B103-APP695 cells; assay: LDH release assay in B103 cells stably transfected with APP695; type: cell-based, rat
Method: as §4, with “experimentation. Transfections were conducted using Lippofectamine LTX (Thermofisher; cat #A12621) according to the manufacturer's instructions. LDH assays were conducted with a LDH assay kit following manufacturer's instructions (cat #88954).” for “experimentation.”

[20] = tested on: MAST4 mRNA; assay: qPCR of MAST4 mRNA, transfected B103 cells; type: cell-based, rat; details: B103 APP695, 5 μM 27OHC
Method: as §2, §3

## C[C@@H](CO)CCC[C@@H](C)[C@H]1CC[C@H]2[C@@H]3CC=C4C[C@@H](O)CC[C@]4(C)[C@H]3CC[C@]12C [27OHC, 27-hydroxycholesterol]
[1]
  MAST4 protein expression: MAST4 protein expression increased
[2]; 5 and 50 μM 27OHC, FIG. 3J
  RTKN2 mRNA: upregulated at 5 μM but not 50 μM: confirmed in rat cortical neurons
[2]; cytoprotective doses, 2.5 and 5 μM 27OHC
  RTKN2 mRNA: increased RTKN2 mRNA
[3]; 5 μM 27OHC
  Bcl-2: robust increase in Bcl-2
  RTKN2 protein: robust increase in Bcl-2 and RTKN2
  active forms of caspases 3 and 7: decrease in active forms of both caspases
[3]; 50 μM 27OHC
  Bcl-2: decreased Bcl-2
  active forms of caspases 3 and 7: increased the active forms of both caspases
[4]
  dead/live cell abundance: protective
[5]
  AICD interaction with the MAST4 promoter: AICD also interacts with the MAST4 promoter
[6]
  RTKN2 protein expression: increased
[7]; 15, 25, and 50 μM treatments
  cytotoxicity (LDH): increasing cytotoxicity
[7]; 18 hours
  concentration of maximum protective effect (LDH): 5 µM
  LDH release, dose-response pattern: biphasic dose-dependent cellular response
[7]; concentrations below 10 μM, 18 hours
  LDH release compared to baseline (solvent alone): decreased LDH compared to baseline
[7]; higher concentrations (than 10 μM), 18 hours
  cytotoxicity (LDH release): dose-dependent cytotoxicity
[8]; B103 expressing APPG700A, 5 μM 27OHC
  AICD binding to the MAST4 promoter: an effect not seen in cells expressing APPG700A
[8]; B103 transfected with APP695, 5 μM 27OHC
  AICD binding to the MAST4 promoter: increased AICD binding to the MAST4 promoter
[9]
  RTKN2 mRNA: RTKN2 was upregulated
[10]
  FOXO1 binding to the RTKN2 promoter: decrease of that binding
[11]
  RTKN2 mRNA: increased RTKN2 mRNA
[12]; cells treated with 5 μM 27OHC
  FOXO1 phosphorylation in MAST4 immunoprecipitates: Increased FOXO1 phosphorylation
[12]; cells treated with 50 μM 27OHC
  FOXO1 phosphorylation in MAST4 immunoprecipitates: No increase in pSer-FOXO1
[13]
  AICD binding to the MAST4 promoter: AICD does bind to the MAST4 promoter
[14]
  FOXO1 binding to the RTKN2 promoter: FOXO1 binding was also decreased
[15]
  MAST4 mRNA levels: also present in rat primary neurons
[16]
  MAST4 mRNA levels: elevated MAST4 mRNA levels
[17]
  LDH levels, dose-response: increased LDH levels in a dose-dependent manner; also recorded: Cytotoxicity is dose-dependent
[18]; 5 and 50 μM 27OHC, FIG. 3F
  FOXO1 binding to the RTKN2 promoter: decreased at 5 μM but not 50 μM: confirmed in rat cortical neurons
[18]; 15, 25, and 50 μM 27OHC
  FOXO1 binding to the RTKN2 promoter: increasing
[18]; cytoprotective doses, 2.5 and 5 μM 27OHC (b174 prints 5 M)
  FOXO1 binding to the RTKN2 promoter: decreased binding of FOXO1 to the RTKN2 promoter
[19]; 5 μM 27OHC
  LDH levels: reduced LDH levels
[19]; doses greater than 10 μM
  cytotoxicity (LDH): dose-dependently cytotoxic
[19]; presence of APP695, 18 hours
  LDH levels, dose-response pattern: biphasic response comparable to that shown by SH-SY5Y cells; also recorded: biphasic pattern
[20]
  MAST4 mRNA levels: elevated MAST4 mRNA levels

## CC(C)C(O)CC[C@@H](C)[C@H]1CC[C@H]2[C@@H]3CC=C4C[C@@H](O)CC[C@]4(C)[C@H]3CC[C@]12C (stereo partly drawn) [24OHC, 24-hydroxycholesterol]
[7]; 18 hours
  LDH release, dose-response pattern: had no effect; also recorded: No LDH changes are measurable
